Reference: the supplement of paper PMC10307832

Key:
Assay in all cases: relative viability (nuclei count vs DMSO), 5 days (fraction); higher = more cells survive
[1] = compound: O=c1[nH]cc(F)c(=O)[nH]1 [5-Fluorouracil] + Nc1nc2[nH]cc(CCc3ccc(C(=O)N[C@@H](CCC(=O)O)C(=O)O)cc3)c2c(=O)[nH]1 [Pemetrexed] (partner 0.2 µM)
Procedure, shortened: (§1)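 Lung cancer cell lines were seeded in 1536-well plates and dosed by pin tool the next day, with either a single drug or a fixed anchor-drug dose combined with five library-drug doses (not always all listed) spaced in √10 steps. Five days later, one step fixed the cells and stained their nuclei (final 0.05% Triton X-100, 1% formaldehyde, 1 ug/ml Hoechst), and nuclei were counted on 4× images. Relative viability is the nuclei count in treated wells divided by the count in vehicle wells, and each value is the median of duplicate plates.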

[2] = compound: O=c1[nH]cc(F)c(=O)[nH]1 [5-Fluorouracil] + CC1(C)CCC(c2ccc(Cl)cc2)=C(CN2CCN(c3ccc(C(=O)NS(=O)(=O)c4ccc(N[C@H](CCN5CCOCC5)CSc5ccccc5)c(S(=O)(=O)C(F)(F)F)c4)cc3)CC2)C1 [Navitoclax] (partner 0.5 µM)
Procedure, shortened: as §1

[3] = compound: CN[C@@H]1C[C@H]2O[C@@](C)([C@@H]1OC)n1c3ccccc3c3c4c(c5c6ccccc6n2c5c31)C(=O)NC4 [Staurosporine] + CC(C)C[C@H](NC(=O)[C@H](Cc1ccccc1)NC(=O)c1cnccn1)B(O)O [Bortezomib] (partner 0.002 µM)
Procedure, shortened: as §1

[4] = compound: CN[C@@H]1C[C@H]2O[C@@](C)([C@@H]1OC)n1c3ccccc3c3c4c(c5c6ccccc6n2c5c31)C(=O)NC4 [Staurosporine] + Cc1cc(Nc2cc(N3CCN(C)CC3)nc(Sc3ccc(NC(=O)C4CC4)cc3)n2)n[nH]1 [Tozasertib] (partner 0.1 µM)
Procedure, shortened: as §1

Cell Line | relative viability ([1]; first compound 0.02 µM) | relative viability ([1]; first compound 0.2 µM) | relative viability ([1]; first compound 0.6325 µM) | relative viability ([1]; first compound 2 µM) | relative viability ([2]; first compound 0.02 µM) | relative viability ([2]; first compound 0.2 µM) | relative viability ([2]; first compound 0.6325 µM) | relative viability ([2]; first compound 2 µM) | relative viability ([3]; first compound 0.005 µM) | relative viability ([3]; first compound 0.05 µM) | relative viability ([3]; first compound 0.1581 µM) | relative viability ([3]; first compound 0.5 µM) | relative viability ([4]; first compound 0.005 µM) | relative viability ([4]; first compound 0.01581 µM) | relative viability ([4]; first compound 0.05 µM) | relative viability ([4]; first compound 0.1581 µM) | relative viability ([4]; first compound 0.5 µM) | relative viability ([3]; first compound 0.01581 µM)
NCI-H1915 | 0.395 | 0.542 | 0.421 | 0.419 | 0.714 | 0.8 | 0.779 | 0.668 | 1.04 | 0.327 | 0.118 | 0.154 | 0.45 | 0.229 | 0.217 | 0.108 | 0.154 | –
LXF-289 | 0.807 | 0.704 | 0.494 | 0.363 | 0.881 | 0.625 | 0.387 | 0.283 | 0.822 | 0.257 | 0.122 | 0.0797 | 0.0996 | 0.072 | 0.0495 | 0.0532 | 0.0507 | –
HCC-827 | 0.238 | 0.239 | 0.273 | 0.262 | 0.969 | 1 | 0.592 | 0.382 | 0.942 | 0.915 | 0.564 | 0.582 | 0.442 | 0.313 | 0.358 | 0.329 | 0.263 | 0.874
EMC-BAC-2 | 0.47 | 0.479 | 0.419 | 0.484 | 1.19 | 1.2 | 1.25 | 1.19 | 0.564 | 0.224 | 0.178 | 0.137 | 0.181 | 0.138 | 0.19 | 0.192 | 0.181 | 0.564
NCI-H647 | 0.187 | 0.182 | 0.176 | 0.164 | 1.24 | 1.06 | 1.09 | 0.729 | 0.532 | 0.285 | 0.0743 | 0.0533 | 0.201 | 0.157 | 0.0667 | 0.0489 | 0.061 | 0.164
NCI-H1792 | 0.948 | 0.569 | 0.215 | 0.191 | 0.64 | 0.591 | 0.131 | 0.118 | 1.05 | 0.372 | 0.182 | 0.196 | – | – | – | – | – | 0.797
NCI-H2009 | 1.15 | 0.968 | 0.85 | 0.656 | 1.18 | 1.16 | 1.08 | 0.726 | 0.278 | 0.165 | 0.0953 | 0.0887 | 0.295 | 0.312 | 0.176 | 0.19 | 0.0978 | 0.147
NCI-H522 | 0.891 | 1.1 | 1.03 | 0.95 | – | – | – | – | – | – | – | – | 0.541 | – | 0.492 | 0.433 | 0.486 | –
SK-MES-1 | 0.837 | 0.473 | 0.351 | 0.303 | 1.2 | 0.789 | 0.474 | 0.373 | – | – | – | – | 0.52 | 0.327 | 0.149 | 0.125 | 0.125 | –
NCI-H1299 | – | – | – | – | 1.07 | 1.1 | 1.06 | 0.895 | 1.1 | 0.433 | 0.255 | 0.169 | – | – | – | – | – | 1.03
NCI-H1563 | 0.711 | 0.924 | 0.786 | 0.732 | – | – | – | – | 0.655 | 0.661 | 0.501 | 0.438 | – | – | – | – | – | 0.571
NCI-H650 | 0.762 | 0.649 | 0.36 | 0.317 | – | – | – | – | 0.504 | 0.315 | 0.212 | 0.206 | 0.451 | 0.238 | 0.278 | 0.193 | 0.181 | 0.283
NCI-H1944 | 0.523 | 0.527 | 0.249 | 0.179 | 0.926 | 0.862 | 0.331 | 0.24 | – | – | – | – | 0.255 | 0.21 | 0.206 | 0.161 | 0.155 | –
LK-2 | 0.294 | 0.35 | 0.264 | 0.201 | 1.06 | 0.939 | 0.652 | 0.603 | – | – | – | – | 0.164 | – | 0.156 | 0.149 | 0.151 | –
Calu-6 | – | – | – | – | 0.859 | 0.786 | 0.679 | 0.362 | 0.844 | 0.313 | 0.14 | 0.0926 | – | – | – | – | – | 0.531
NCI-H1395 | 0.743 | 0.994 | 0.902 | 0.893 | 0.997 | 1.21 | 1.07 | 1.12 | – | – | – | – | 0.705 | 0.614 | 0.37 | 0.331 | 0.265 | –
NCI-H661 | 0.998 | 0.905 | 0.947 | 0.883 | – | – | – | – | 0.716 | 0.341 | 0.275 | 0.228 | 0.392 | 0.445 | 0.401 | 0.335 | 0.238 | 0.453
NCI-H727 | – | – | – | – | 0.369 | 0.41 | 0.527 | 0.315 | 0.703 | 0.345 | 0.352 | 0.158 | 0.562 | 0.429 | 0.303 | 0.318 | 0.297 | 0.354
EBC-1 | – | – | – | – | 0.342 | 0.405 | 0.44 | 0.339 | 0.308 | 0.185 | 0.2 | 0.14 | – | – | – | – | – | 0.234
NCI-H1648 | 0.816 | 0.864 | 0.572 | 0.332 | – | – | – | – | – | – | – | – | 0.236 | 0.185 | 0.169 | 0.214 | 0.243 | –
NCI-H1703 | – | – | – | – | 1.32 | 1.08 | 0.817 | 0.61 | 0.215 | 0.11 | 0.157 | 0.111 | – | – | – | – | – | 0.165
SW 900 | 0.468 | 0.491 | 0.518 | 0.385 | – | – | – | – | – | – | – | – | 0.541 | 0.239 | 0.246 | 0.206 | 0.162 | –
NCI-H2342 | 0.744 | 0.84 | 0.776 | 0.725 | – | – | – | – | – | – | – | – | 0.406 | 0.495 | 0.295 | 0.305 | 0.278 | –
A549 | – | – | – | – | 1.2 | 0.754 | 0.244 | 0.114 | – | – | – | – | – | – | – | – | – | –
LCLC-103H | 0.481 | 0.413 | 0.464 | 0.384 | – | – | – | – | 1.03 | 0.364 | 0.274 | 0.251 | 0.534 | 0.207 | 0.174 | 0.128 | 0.146 | 0.613
